“And” between values parts separate entries of the source, which are not always exact repeats. Equal values may be shown once. Read-outs that look alike come from different tables or passages of the source.
Legend:
Format in all cases: cell-based
[1] = system: 293T cells expressing a dox inducible Halo–p53-Y220C ΔTAD–mCherry; assay: viability with doxycycline-inducible construct
Procedure: (§1) Cells were plated in 384-well plates (typically 1,500 cells per well) with varying concentrations of compounds, with a total volume of 50 μl per well. CTG reagent was added (25 μl) to the solutions, mixed and read out using an EnVision 2105 multimode plate reader.

[2] = viability with doxycycline-inducible construct; settings: human, read-out: mean_norm (normalized viability)
Procedure: as §1

[3] = system: Halo–p53-Y220C ΔTAD–mCherry 293T cells; assay: annexin–PI staining; settings: for P3_avg (P3 = early apoptotic) / P5_avg (P5 = late apoptotic): Cell_Line Y220C, proportion of cells; for avgprop_P3 / avgprop_P4 / avgprop_P5 / avgprop_P2 / P2_viable / P3_AnnexinPos_PIneg / P4_PIpos_AnnexinNeg / P5_PIpos_Annexinpos / prop_P3 / prop_P4 / prop_P5 / prop_P2: Y220C; for avgprop_P3: average proportion AnnexinPos PIneg; for avgprop_P4: average proportion PIpos AnnexinNeg; for avgprop_P5: average proportion PIpos Annexinpos; for avgprop_P2: average proportion viable; for P2_viable / P3_AnnexinPos_PIneg / P4_PIpos_AnnexinNeg / P5_PIpos_Annexinpos: event count; for P2_viable / P3_AnnexinPos_PIneg / P4_PIpos_AnnexinNeg / P5_PIpos_Annexinpos / prop_P3 / prop_P4 / prop_P5 / prop_P2: single replicate; for prop_P3: proportion AnnexinPos PIneg; for prop_P4: proportion PIpos AnnexinNeg; for prop_P5: proportion PIpos Annexinpos; for prop_P2: proportion viable
Procedure: (§2) Cells were plated in six-well plates and treated with varying concentrations of compounds for 1 day. Cells were stained with annexin V–AF488 and PI following the manufacturer’s instructions (Thermo Fisher, V13241) and analyzed by flow cytometry (Beckman CytoFLEX LX), using untreated cells to establish gates.

parental 293T cells = assay: annexin–PI staining; settings: for P3_avg (P3 = early apoptotic) / P5_avg (P5 = late apoptotic): Cell_Line WT, proportion of cells; for avgprop_P3 / avgprop_P4 / avgprop_P5 / avgprop_P2 / P2_viable / P3_AnnexinPos_PIneg / P4_PIpos_AnnexinNeg / P5_PIpos_Annexinpos / prop_P3 / prop_P4 / prop_P5 / prop_P2: WT; for avgprop_P3: average proportion AnnexinPos PIneg; for avgprop_P4: average proportion PIpos AnnexinNeg; for avgprop_P5: average proportion PIpos Annexinpos; for avgprop_P2: average proportion viable; for P2_viable / P3_AnnexinPos_PIneg / P4_PIpos_AnnexinNeg / P5_PIpos_Annexinpos: event count; for P2_viable / P3_AnnexinPos_PIneg / P4_PIpos_AnnexinNeg / P5_PIpos_Annexinpos / prop_P3 / prop_P4 / prop_P5 / prop_P2: single replicate; for prop_P3: proportion AnnexinPos PIneg; for prop_P4: proportion PIpos AnnexinNeg; for prop_P5: proportion PIpos Annexinpos; for prop_P2: proportion viable
Procedure: as §2

[4] = system: Halo–p53-Y220C ΔTAD–mCherry 293T cells versus parental 293T cells; assay: flow-cytometry growth competition; settings: for normalized_mCherry_percentage: Y220C, day 8, normalized to DMSO
Procedure: (§3) Cells with and without a fluorescent marker (for example, Halo–p53–mCherry) were mixed and the resulting solution was plated in six-well plates or 10-cm dishes at low density; compound was added at varying concentrations. After reaching confluence, cells were passaged and retreated with compound if needed. Otherwise, cells were trypsinized, washed and resuspended in complete growth medium in 96-well plates or tubes for flow cytometry. Untreated cell mixtures were used to establish gates separating the fluorophore^+/− populations. Analysis was conducted on a CytoFLEX LX flow cytometer.

[5] = system: MFE319 cells stably expressing sgTP53–Cas9–EGFP versus parental MFE319 cells; assay: flow-cytometry growth competition
Procedure: as §3

[6] = system: Calu-1 cells stably expressing Halo–p53-R273H (FL)–mCherry versus parental Calu-1 cells; assay: flow-cytometry growth competition; settings: sheet S2E
Procedure: as §3

CC[C@@H]1C(=O)N(C)c2cnc(Nc3ccc(C(=O)NC4CCN(C)CC4)cc3OC)nc2N1C1CCCC1 [BI2536]
change of potency upon doxycycline induction ([1]; dox 0, 100, 1000 ng/mL, 4 days): without impacting the potency | mean_norm (normalized viability) ([1]; dox 0, Concentration 0.0390625): 0.9266 | mean_norm (normalized viability) ([1]; dox 0, Concentration 0.078125): 0.8991 | mean_norm (normalized viability) ([1]; dox 0, Concentration 0.15625): 0.8734 | mean_norm (normalized viability) ([1]; dox 0, Concentration 0.3125): 0.835 | mean_norm (normalized viability) ([1]; dox 0, Concentration 0.625): 0.7837 | mean_norm (normalized viability) ([1]; dox 0, Concentration 1.25): 0.5152 | mean_norm (normalized viability) ([1]; dox 0, Concentration 2.5): 0.218 | mean_norm (normalized viability) ([1]; dox 0, Concentration 5): 0.1689 | mean_norm (normalized viability) ([1]; dox 0, Concentration 10): 0.1644 | mean_norm (normalized viability) ([1]; dox 100, Concentration 0.3125): 0.8537 | mean_norm (normalized viability) ([1]; dox 100, Concentration 0.625): 0.6735 | mean_norm (normalized viability) ([1]; dox 100, Concentration 1.25): 0.3823 | mean_norm (normalized viability) ([1]; dox 100, Concentration 2.5): 0.2022 | mean_norm (normalized viability) ([1]; dox 100, Concentration 5): 0.161 | mean_norm (normalized viability) ([1]; dox 100, Concentration 10): 0.1435 | viability ([2]; dox 100, Concentration 0.0390625): 99% | viability ([2]; dox 100, Concentration 0.078125): 86.5% | viability ([2]; dox 100, Concentration 0.15625): 88.6% | viability ([2]; dox 1000, Concentration 0.0390625): 97.3% | viability ([2]; dox 1000, Concentration 0.078125): 89.3% | viability ([2]; dox 1000, Concentration 0.15625): 88.7% | viability ([2]; dox 1000, Concentration 0.3125): 83% | viability ([2]; dox 1000, Concentration 0.625): 74.2% | viability ([2]; dox 1000, Concentration 1.25): 48.7% | viability ([2]; dox 1000, Concentration 2.5): 18.6% | viability ([2]; dox 1000, Concentration 5): 14.5% | viability ([2]; dox 1000, Concentration 10): 10.7% | P3_avg (P3 = early apoptotic) ([3]; Concentration 0.75): 0.03538 | P5_avg (P5 = late apoptotic) ([3]; Concentration 0.75): 0.001761 | P3_avg (P3 = early apoptotic) ([3]; Concentration 1.5): 0.08725 | P5_avg (P5 = late apoptotic) ([3]; Concentration 1.5): 0.03439 | avgprop_P3 ([3]; Concentration 0.75): 0.03538 | avgprop_P4 ([3]; Concentration 0.75): 0.005431 | avgprop_P5 ([3]; Concentration 0.75): 0.001761 | avgprop_P2 ([3]; Concentration 0.75): 0.9574 | P2_viable ([3]; Concentration 0.75): 2186 and 2152 and 2185 | P3_AnnexinPos_PIneg ([3]; Concentration 0.75): 74 and 98 and 69 | P4_PIpos_AnnexinNeg ([3]; Concentration 0.75): 7 and 17 and 13 | P5_PIpos_Annexinpos ([3]; Concentration 0.75): 5 and 3 and 4 | prop_P3 ([3]; Concentration 0.75): 0.03257 and 0.04317 and 0.03038 | prop_P4 ([3]; Concentration 0.75): 0.003081 and 0.007489 and 0.005724 | prop_P5 ([3]; Concentration 0.75): 0.002201 and 0.001322 and 0.001761 | prop_P2 ([3]; Concentration 0.75): 0.9621 (2×) and 0.948 | avgprop_P3 ([3]; Concentration 1.5): 0.08725 | avgprop_P4 ([3]; Concentration 1.5): 0.1027 | avgprop_P5 ([3]; Concentration 1.5): 0.03439 | avgprop_P2 ([3]; Concentration 1.5): 0.7757 | P2_viable ([3]; Concentration 1.5): 1282 and 1336 and 510 | P3_AnnexinPos_PIneg ([3]; Concentration 1.5): 163 and 159 and 47 | P4_PIpos_AnnexinNeg ([3]; Concentration 1.5): 201 and 160 and 62 | P5_PIpos_Annexinpos ([3]; Concentration 1.5): 59 and 56 and 23 | prop_P3 ([3]; Concentration 1.5): 0.0956 and 0.09293 and 0.07321 | prop_P4 ([3]; Concentration 1.5): 0.1179 and 0.09351 and 0.09657 | prop_P5 ([3]; Concentration 1.5): 0.0346 and 0.03273 and 0.03583 | prop_P2 ([3]; Concentration 1.5): 0.7519 and 0.7808 and 0.7944 | P3_avg (P3 = early apoptotic) (parental 293T cells; Concentration 0.75): 0.04079 | P5_avg (P5 = late apoptotic) (parental 293T cells; Concentration 0.75): 0.01489 | P3_avg (P3 = early apoptotic) (parental 293T cells; Concentration 1.5): 0.1126 | P5_avg (P5 = late apoptotic) (parental 293T cells; Concentration 1.5): 0.03242 | avgprop_P3 (parental 293T cells; Concentration 0.75): 0.04079 | avgprop_P4 (parental 293T cells; Concentration 0.75): 0.03008 | avgprop_P5 (parental 293T cells; Concentration 0.75): 0.01489 | avgprop_P2 (parental 293T cells; Concentration 0.75): 0.9142 | P2_viable (parental 293T cells; Concentration 0.75): 2015 and 2037 and 2022 | P3_AnnexinPos_PIneg (parental 293T cells; Concentration 0.75): 93 and 83 and 95 | P4_PIpos_AnnexinNeg (parental 293T cells; Concentration 0.75): 62 and 58 and 80 | P5_PIpos_Annexinpos (parental 293T cells; Concentration 0.75): 28 and 35 and 36 | prop_P3 (parental 293T cells; Concentration 0.75): 0.04231 and 0.03751 and 0.04254 | prop_P4 (parental 293T cells; Concentration 0.75): 0.02821 and 0.02621 and 0.03583 | prop_P5 (parental 293T cells; Concentration 0.75): 0.01274 and 0.01582 and 0.01612 | prop_P2 (parental 293T cells; Concentration 0.75): 0.9167 and 0.9205 and 0.9055 | avgprop_P3 (parental 293T cells; Concentration 1.5): 0.1126 | avgprop_P4 (parental 293T cells; Concentration 1.5): 0.02945 | avgprop_P5 (parental 293T cells; Concentration 1.5): 0.03242 | avgprop_P2 (parental 293T cells; Concentration 1.5): 0.8255 | P2_viable (parental 293T cells; Concentration 1.5): 1572 and 1534 and 1608 | P3_AnnexinPos_PIneg (parental 293T cells; Concentration 1.5): 206 and 222 and 215 | P4_PIpos_AnnexinNeg (parental 293T cells; Concentration 1.5): 60 and 57 and 51 | P5_PIpos_Annexinpos (parental 293T cells; Concentration 1.5): 54 and 71 and 60 | prop_P3 (parental 293T cells; Concentration 1.5): 0.1089 and 0.1178 and 0.1112 | prop_P4 (parental 293T cells; Concentration 1.5): 0.03171 and 0.03025 and 0.02637 | prop_P5 (parental 293T cells; Concentration 1.5): 0.02854 and 0.03769 and 0.03102 | prop_P2 (parental 293T cells; Concentration 1.5): 0.8309 and 0.8142 and 0.8314 | activity / difference in cell survival in competition ([4]; 8-day competition): did not observe any activity | normalized_mCherry_percentage ([4]; 0.02 nM): 98.51% | normalized_mCherry_percentage ([4]; 0.2 nM): 98.69% | normalized_mCherry_percentage ([4]; 1 nM): 100.1% | normalized_mCherry_percentage ([4]; 5 nM): 117.7% | merge_avg (growth competition, sheet 4H) ([5]; Concentration (pM) 19.5312): 0.9382 | merge_avg (growth competition, sheet 4H) ([5]; Concentration (pM) 78.125): 0.9005 | merge_avg (growth competition, sheet 4H) ([5]; Concentration (pM) 312.5): 0.9194 | merge_avg (growth competition, sheet 4H) ([5]; Concentration (pM) 1250): 0.8118 | enrichment of EGFP^+ (TP53-knockout) population ([5]; day 9, p53-01 at doses between 800 nM and 1.25 μM): no such activity | mCherry_percent ([6]; 0.1 nM): 80.66% | mCherry_percent ([6]; 1 nM): 80.59% | mCherry_percent ([6]; 10 nM): 80.93%
